For data set [1] the following is noted: Crystal; DSC.
Data set [2] in a line: Molar enthalpy of transition or fusion. The settings on record: Crystal; DSC.

± gives the expanded uncertainty stated by the source.

Regarding `Nc1cc([N+](=O)[O-])ccc1Cl` [2-chloro-5-nitroaniline], the Triple point temperature in data set [1] turned out to be 393.39 ± 1.2 K. The “Molar enthalpy of transition or fusion” value in data set [2] turned out to be 27 ± 0.97 kJ/mol.

(Values after the NIST ThermoML archive (doi:10.1021/acs.jced.8b00931).)
